Tests used:
[1] = system: peptide-pulsed T2 cells; assay: IFN-gamma ELISPOT assay (positive wells); assay type: cell-based, human; conditions: HLA-A*0201, 9-mer peptides derived from INHBB; positive/total wells
Procedure, shortened: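 CD8+ T cells from HLA-A*2402 and/or HLA-A*0201 donors were stimulated 1:20 with autologous monocyte-derived DCs pulsed with 20 µg/ml peptide plus β2-microglobulin, in IL-7, with IL-2 added, restimulated on days 7 and 14. On day 21, IFN-γ ELISPOT against peptide-pulsed T2 or A24-LCL cells (1×10^4/well) scored wells as positive, with CTL lines confirmed by ELISA.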

[2] = system: CD8+ T cells (HLA-A*0201 donors); assay: In vitro CTL induction with peptide-pulsed DCs (positive donor number); assay type: cell-based, human; conditions: HLA-A*0201, 9-mer peptides derived from INHBB; positive/total donors
Procedure, shortened: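 Monocyte-derived DCs (GM-CSF/IL-4, 7 days) pulsed with 20 μg/ml peptide plus β2-microglobulin, MMC-inactivated, co-cultured 1:20 with autologous CD8+ T cells with IL-7, then IL-2; restimulated days 7 and 14. CTL activity tested against peptide-pulsed T2 cells on day 21; value = positive donors/total donors.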

In the case of VQCDSCQEL, the positive well number [1] is reported as 1/8 and the positive donor number [2] is reported as 0/1.

Reference: patent US8759481B2, “Peptide vaccines for cancers expressing tumor-associated antigens” (Oncotherapy Science, Inc., priority 2007, dated 2014)
